Source: paper PMC3639963, “A New Class of Small Molecule Inhibitor of BMP Signaling” (PLoS ONE, 2013)

Columns and labels:
Assay in all cases: Nanosyn kinase profiling
Format in all cases: biochemical
Settings in all cases: read-out: Percentage inhibition; for inhibition at 0.1 µM: 0.1 µM inhibitor; for inhibition at 1 µM: 1 µM inhibitor
[1] = target: T1, FER (Homo sapiens, UniProt P16591)
T1 construct: purchased Nanosyn (enzymatic panel); SGC in-house recombinant human kinases (DSF panel); Invitrogen (ALK1-6)
T1 sequence (P16591 whole entry): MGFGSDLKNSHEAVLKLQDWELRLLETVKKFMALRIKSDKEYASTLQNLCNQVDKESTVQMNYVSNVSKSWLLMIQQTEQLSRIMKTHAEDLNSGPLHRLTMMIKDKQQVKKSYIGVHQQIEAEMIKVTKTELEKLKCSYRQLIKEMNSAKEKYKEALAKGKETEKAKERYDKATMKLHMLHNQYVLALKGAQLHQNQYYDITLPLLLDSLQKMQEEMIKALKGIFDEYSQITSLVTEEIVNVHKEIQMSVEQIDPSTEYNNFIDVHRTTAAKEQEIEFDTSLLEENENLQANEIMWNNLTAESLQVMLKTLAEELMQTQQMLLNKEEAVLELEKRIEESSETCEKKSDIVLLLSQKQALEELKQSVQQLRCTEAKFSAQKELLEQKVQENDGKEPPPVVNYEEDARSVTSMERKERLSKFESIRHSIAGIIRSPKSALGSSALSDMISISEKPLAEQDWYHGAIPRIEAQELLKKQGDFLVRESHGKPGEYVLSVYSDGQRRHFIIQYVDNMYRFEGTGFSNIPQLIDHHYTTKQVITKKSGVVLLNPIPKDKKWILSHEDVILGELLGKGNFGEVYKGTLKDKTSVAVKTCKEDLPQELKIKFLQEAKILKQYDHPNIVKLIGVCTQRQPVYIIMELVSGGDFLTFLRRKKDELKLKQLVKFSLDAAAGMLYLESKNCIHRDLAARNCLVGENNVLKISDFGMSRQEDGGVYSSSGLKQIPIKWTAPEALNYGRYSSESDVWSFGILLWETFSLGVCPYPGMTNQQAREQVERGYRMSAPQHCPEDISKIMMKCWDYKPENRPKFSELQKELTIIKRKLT
Outline: (§1)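 Percent inhibition of each kinase was measured with the inhibitor at 0.1 µM and at 1 µM, as part of a 200-kinase human selectivity panel.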

[2] = target: T2, TSSK2 (Homo sapiens, UniProt Q96PF2)
T2 construct: purchased Nanosyn (enzymatic panel); SGC in-house recombinant human kinases (DSF panel); Invitrogen (ALK1-6)
T2 sequence (Q96PF2 1-358): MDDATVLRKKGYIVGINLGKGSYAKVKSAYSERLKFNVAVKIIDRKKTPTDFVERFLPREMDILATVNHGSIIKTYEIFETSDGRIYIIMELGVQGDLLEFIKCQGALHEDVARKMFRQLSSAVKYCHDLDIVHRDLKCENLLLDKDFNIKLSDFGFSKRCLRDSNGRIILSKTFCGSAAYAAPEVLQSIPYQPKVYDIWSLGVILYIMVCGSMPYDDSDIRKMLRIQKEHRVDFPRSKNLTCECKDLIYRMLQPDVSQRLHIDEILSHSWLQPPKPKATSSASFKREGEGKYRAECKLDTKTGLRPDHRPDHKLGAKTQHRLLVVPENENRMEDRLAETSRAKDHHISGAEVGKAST
Outline: as §1

[3] = target: T3, BLK (Homo sapiens, UniProt P51451)
T3 construct: purchased Nanosyn (enzymatic panel); SGC in-house recombinant human kinases (DSF panel); Invitrogen (ALK1-6)
T3 sequence (P51451 whole entry): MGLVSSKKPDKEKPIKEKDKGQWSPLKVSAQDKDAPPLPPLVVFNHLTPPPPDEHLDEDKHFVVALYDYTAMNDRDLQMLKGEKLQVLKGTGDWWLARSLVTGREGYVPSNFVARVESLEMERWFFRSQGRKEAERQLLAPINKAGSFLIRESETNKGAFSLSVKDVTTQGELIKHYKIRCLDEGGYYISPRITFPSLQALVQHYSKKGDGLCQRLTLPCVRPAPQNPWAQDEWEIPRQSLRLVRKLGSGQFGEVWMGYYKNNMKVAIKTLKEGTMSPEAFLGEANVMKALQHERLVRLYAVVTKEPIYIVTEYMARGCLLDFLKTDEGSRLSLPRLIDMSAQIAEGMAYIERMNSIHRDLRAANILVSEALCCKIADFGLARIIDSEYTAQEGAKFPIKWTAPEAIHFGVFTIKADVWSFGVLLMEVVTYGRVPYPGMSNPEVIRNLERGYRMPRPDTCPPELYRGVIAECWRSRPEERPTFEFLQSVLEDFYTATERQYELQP
Outline: as §1

[4] = target: T4, CDK5/p35 (Homo sapiens, UniProt Q00535)
T4 construct: purchased Nanosyn (enzymatic panel); SGC in-house recombinant human kinases (DSF panel); Invitrogen (ALK1-6)
Outline: as §1

[5] = target: T5, TYK2 (Homo sapiens, UniProt P29597)
T5 construct: purchased Nanosyn (enzymatic panel); SGC in-house recombinant human kinases (DSF panel); Invitrogen (ALK1-6)
T5 sequence (P29597 whole entry): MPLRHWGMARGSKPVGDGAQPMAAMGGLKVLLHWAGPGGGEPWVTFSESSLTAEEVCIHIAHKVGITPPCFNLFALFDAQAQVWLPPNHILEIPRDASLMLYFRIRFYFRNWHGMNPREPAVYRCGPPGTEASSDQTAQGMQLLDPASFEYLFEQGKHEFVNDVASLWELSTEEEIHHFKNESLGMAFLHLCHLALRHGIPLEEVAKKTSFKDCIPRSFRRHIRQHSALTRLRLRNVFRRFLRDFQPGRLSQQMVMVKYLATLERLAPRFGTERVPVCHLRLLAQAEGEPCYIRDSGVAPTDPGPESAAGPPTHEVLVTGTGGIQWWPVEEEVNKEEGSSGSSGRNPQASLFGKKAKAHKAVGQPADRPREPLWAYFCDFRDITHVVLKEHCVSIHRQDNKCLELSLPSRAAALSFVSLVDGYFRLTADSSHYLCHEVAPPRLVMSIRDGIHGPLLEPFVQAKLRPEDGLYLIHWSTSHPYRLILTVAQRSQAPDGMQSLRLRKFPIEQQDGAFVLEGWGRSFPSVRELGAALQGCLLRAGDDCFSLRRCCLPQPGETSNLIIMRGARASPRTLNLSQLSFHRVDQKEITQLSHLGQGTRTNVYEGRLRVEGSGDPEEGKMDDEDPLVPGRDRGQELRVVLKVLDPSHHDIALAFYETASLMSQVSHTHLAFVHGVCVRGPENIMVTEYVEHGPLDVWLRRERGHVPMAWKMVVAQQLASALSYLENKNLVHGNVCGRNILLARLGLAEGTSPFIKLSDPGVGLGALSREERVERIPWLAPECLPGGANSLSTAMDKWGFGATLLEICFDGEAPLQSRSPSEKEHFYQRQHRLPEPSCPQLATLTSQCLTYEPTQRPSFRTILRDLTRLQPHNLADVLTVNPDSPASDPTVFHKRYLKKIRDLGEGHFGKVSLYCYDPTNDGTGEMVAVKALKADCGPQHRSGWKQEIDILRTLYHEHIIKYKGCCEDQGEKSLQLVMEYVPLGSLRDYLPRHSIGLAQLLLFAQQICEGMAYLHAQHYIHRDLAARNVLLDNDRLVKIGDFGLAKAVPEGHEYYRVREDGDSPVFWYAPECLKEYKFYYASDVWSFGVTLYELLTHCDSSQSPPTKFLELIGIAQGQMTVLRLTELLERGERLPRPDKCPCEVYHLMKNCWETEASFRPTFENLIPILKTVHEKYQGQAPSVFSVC
Outline: as §1

[6] = target: T6, EPHB2 (Homo sapiens, UniProt P29323)
T6 construct: purchased Nanosyn (enzymatic panel); SGC in-house recombinant human kinases (DSF panel); Invitrogen (ALK1-6)
T6 sequence (P29323 19-1055): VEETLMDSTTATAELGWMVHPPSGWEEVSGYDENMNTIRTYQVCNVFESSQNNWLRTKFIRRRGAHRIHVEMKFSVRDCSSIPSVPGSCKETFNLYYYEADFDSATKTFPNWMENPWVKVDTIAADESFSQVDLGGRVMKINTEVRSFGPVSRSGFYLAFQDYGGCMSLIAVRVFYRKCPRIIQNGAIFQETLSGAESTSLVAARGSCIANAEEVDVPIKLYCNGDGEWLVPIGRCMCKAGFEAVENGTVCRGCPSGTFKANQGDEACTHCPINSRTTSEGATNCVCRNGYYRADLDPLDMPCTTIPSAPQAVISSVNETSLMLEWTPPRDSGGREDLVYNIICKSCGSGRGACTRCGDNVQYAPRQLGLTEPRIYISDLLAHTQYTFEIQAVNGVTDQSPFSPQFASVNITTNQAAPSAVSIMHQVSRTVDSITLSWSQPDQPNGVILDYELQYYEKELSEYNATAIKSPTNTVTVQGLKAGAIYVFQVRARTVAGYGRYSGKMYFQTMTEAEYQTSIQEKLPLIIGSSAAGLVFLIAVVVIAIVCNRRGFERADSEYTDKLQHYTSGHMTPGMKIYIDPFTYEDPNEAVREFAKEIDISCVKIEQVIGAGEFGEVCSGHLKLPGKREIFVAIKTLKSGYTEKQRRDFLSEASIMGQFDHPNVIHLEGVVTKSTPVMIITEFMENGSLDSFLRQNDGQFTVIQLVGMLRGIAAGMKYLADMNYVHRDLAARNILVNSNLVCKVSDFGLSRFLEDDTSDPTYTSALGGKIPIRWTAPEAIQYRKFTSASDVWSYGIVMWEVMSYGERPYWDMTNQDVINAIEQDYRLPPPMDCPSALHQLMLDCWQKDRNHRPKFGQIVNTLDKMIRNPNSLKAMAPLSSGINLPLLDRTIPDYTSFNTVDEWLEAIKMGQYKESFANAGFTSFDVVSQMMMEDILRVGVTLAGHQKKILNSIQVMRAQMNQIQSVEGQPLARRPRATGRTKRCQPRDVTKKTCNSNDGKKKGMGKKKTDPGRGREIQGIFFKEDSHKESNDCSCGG
Outline: as §1

[7] = target: T7, TEC (Homo sapiens, UniProt P42680)
T7 construct: purchased Nanosyn (enzymatic panel); SGC in-house recombinant human kinases (DSF panel); Invitrogen (ALK1-6)
T7 sequence (P42680 1-631): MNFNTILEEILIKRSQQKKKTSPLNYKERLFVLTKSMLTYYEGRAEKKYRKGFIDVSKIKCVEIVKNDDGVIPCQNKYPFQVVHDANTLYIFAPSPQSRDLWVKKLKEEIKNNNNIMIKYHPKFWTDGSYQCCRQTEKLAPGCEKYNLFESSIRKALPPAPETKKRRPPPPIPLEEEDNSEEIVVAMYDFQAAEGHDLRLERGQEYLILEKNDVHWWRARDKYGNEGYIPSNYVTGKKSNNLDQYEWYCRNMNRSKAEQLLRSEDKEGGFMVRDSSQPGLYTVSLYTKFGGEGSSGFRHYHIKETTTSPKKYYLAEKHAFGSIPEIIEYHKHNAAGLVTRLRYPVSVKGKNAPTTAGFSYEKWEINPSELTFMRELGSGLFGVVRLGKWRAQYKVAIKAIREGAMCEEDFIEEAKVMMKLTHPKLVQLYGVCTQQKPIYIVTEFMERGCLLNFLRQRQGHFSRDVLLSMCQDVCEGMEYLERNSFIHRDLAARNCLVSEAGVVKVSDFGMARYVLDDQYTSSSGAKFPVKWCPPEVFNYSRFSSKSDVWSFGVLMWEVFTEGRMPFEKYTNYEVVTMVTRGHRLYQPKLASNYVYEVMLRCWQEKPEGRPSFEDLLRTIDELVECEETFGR
Outline: as §1

[8] = target: T8, MARK1 (Homo sapiens, UniProt Q9P0L2)
T8 construct: purchased Nanosyn (enzymatic panel); SGC in-house recombinant human kinases (DSF panel); Invitrogen (ALK1-6)
T8 sequence (Q9P0L2 whole entry): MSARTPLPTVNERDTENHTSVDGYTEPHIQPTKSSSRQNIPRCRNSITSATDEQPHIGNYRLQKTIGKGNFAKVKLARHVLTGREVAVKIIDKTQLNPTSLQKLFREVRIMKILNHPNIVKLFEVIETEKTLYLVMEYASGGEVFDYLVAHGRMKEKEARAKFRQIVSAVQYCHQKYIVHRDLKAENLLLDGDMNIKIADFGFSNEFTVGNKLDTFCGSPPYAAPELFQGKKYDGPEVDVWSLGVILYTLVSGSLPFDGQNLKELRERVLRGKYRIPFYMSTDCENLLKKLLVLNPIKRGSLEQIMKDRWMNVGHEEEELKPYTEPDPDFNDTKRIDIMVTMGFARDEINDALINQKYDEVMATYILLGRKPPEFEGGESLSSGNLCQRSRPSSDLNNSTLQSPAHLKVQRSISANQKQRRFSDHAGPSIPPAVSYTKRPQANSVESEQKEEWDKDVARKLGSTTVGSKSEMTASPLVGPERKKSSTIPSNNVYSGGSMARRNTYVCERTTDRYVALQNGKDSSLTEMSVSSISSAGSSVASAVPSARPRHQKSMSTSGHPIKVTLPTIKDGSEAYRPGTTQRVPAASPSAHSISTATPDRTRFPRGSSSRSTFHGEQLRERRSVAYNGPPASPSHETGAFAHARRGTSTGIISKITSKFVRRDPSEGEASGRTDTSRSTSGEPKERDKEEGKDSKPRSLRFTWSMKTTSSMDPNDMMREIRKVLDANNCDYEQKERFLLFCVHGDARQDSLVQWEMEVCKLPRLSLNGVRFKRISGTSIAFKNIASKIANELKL
Outline: as §1

[9] = target: T9, FGFR1 (Homo sapiens, UniProt P11362)
T9 construct: purchased Nanosyn (enzymatic panel); SGC in-house recombinant human kinases (DSF panel); Invitrogen (ALK1-6)
T9 sequence (P11362 22-822): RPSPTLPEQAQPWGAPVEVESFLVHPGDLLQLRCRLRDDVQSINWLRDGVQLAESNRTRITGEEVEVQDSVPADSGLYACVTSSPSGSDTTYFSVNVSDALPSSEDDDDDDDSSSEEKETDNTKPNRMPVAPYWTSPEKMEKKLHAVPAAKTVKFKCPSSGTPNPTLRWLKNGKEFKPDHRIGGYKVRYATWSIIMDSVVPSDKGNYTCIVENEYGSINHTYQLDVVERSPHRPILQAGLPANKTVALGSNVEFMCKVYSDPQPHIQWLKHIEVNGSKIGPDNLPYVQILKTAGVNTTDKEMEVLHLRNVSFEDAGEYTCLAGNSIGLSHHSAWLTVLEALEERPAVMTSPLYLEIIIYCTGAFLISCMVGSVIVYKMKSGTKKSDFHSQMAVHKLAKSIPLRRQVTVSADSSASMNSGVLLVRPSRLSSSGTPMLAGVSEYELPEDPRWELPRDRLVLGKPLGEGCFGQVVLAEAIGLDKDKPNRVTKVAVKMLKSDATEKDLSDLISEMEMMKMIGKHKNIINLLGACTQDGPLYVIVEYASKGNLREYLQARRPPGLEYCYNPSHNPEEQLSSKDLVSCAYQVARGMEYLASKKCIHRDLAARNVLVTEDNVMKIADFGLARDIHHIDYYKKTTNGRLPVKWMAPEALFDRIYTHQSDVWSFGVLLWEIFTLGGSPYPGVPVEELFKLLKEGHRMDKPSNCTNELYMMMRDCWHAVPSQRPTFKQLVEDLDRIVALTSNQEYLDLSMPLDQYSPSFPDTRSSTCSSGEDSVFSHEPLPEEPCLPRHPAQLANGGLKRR
Outline: as §1

[10] = target: T10, CSK (Homo sapiens, UniProt P41240)
T10 construct: purchased Nanosyn (enzymatic panel); SGC in-house recombinant human kinases (DSF panel); Invitrogen (ALK1-6)
T10 sequence (P41240 whole entry): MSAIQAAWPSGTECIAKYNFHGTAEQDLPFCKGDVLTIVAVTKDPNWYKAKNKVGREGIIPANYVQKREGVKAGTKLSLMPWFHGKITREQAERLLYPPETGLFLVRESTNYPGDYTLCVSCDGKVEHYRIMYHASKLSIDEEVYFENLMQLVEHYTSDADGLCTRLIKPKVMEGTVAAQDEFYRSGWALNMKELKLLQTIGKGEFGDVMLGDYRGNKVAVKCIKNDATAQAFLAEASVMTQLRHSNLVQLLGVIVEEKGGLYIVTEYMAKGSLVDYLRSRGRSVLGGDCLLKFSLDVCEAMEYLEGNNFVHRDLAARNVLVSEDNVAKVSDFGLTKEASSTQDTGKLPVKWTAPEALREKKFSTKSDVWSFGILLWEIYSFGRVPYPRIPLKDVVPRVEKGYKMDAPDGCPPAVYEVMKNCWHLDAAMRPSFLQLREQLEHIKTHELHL
Outline: as §1

[11] = target: T11, CAMK1δ (Homo sapiens, UniProt Q8IU85)
T11 construct: purchased Nanosyn (enzymatic panel); SGC in-house recombinant human kinases (DSF panel); Invitrogen (ALK1-6)
T11 sequence (Q8IU85 whole entry): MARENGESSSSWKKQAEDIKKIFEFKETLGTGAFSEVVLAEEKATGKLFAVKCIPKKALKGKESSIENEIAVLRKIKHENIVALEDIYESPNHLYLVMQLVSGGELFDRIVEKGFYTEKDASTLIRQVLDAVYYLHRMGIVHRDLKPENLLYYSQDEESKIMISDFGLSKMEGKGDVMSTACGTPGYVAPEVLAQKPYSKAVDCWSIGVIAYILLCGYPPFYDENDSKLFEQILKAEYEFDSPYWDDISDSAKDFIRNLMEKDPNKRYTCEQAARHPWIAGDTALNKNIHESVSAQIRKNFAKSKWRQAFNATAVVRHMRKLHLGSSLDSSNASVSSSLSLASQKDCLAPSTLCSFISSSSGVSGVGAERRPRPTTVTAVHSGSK
Outline: as §1

| SMILES | inhibition at 0.1 µM [1] | inhibition at 1 µM [1] | inhibition at 0.1 µM [2] | inhibition at 1 µM [2] | inhibition at 0.1 µM [3] | inhibition at 1 µM [3] | inhibition at 0.1 µM [4] | inhibition at 1 µM [4] | inhibition at 0.1 µM [5] | inhibition at 1 µM [5] | inhibition at 0.1 µM [6] | inhibition at 1 µM [6] | inhibition at 0.1 µM [7] | inhibition at 1 µM [7] | inhibition at 0.1 µM [8] | inhibition at 1 µM [8] | inhibition at 0.1 µM [9] | inhibition at 1 µM [9] | inhibition at 0.1 µM [10] | inhibition at 1 µM [10] | also measured |
| --- | --- | --- | --- | --- | --- | --- | --- | --- | --- | --- | --- | --- | --- | --- | --- | --- | --- | --- | --- | --- | --- |
| COc1cc(-c2cc(-c3cccc(O)c3)cnc2N)cc(OC)c1OC [K02288, 3-[6-amino-5-(3,4,5-trimethoxy-phenyl)-pyridin-3-yl]-phenol] | 0.8% | 7.5% | -1% | -3% | 3.2% | 27% | 0.3% | 1.9% | 0% | 1.8% | 0% | 21% | 0.3% | 14% | 1.3% | 4.5% | -1% | -3% | 3.2% | 13% | inhibition at 0.1 µM [11]: -2%; inhibition at 1 µM [11]: -1% |
| c1ccc2c(-c3cnn4cc(-c5ccc(N6CCNCC6)cc5)cnc34)ccnc2c1 [LDN-193189] | 2.8% | 3.7% | 0% | 0.5% | 3.9% | 24% | 1.4% | 8.5% | -1% | -2% | 8.4% | 24% | 1.8% | 5.5% | 13% | 62% | 3.4% | 19% | 3.3% | 6% | inhibition at 0.1 µM [11]: 0.8%; inhibition at 1 µM [11]: 0.9% |
